# Measured values from paper PMC7216583 (Parasites & Vectors, 2020).
# Where a name gives a salt, the structure may show the parent alone. Read-outs that look alike come from different tables or passages of the source.
# How the values were obtained:
# HER1 = system: HER1; parameters: method as in library vendor description; conditions: ref library vendor description; cited from earlier work
# [1] = system: Toxoplasma gondii RH-2F tachyzoites; test: microbe, parasite or virus in culture; conditions: 72 h
# HER2 = system: HER2; parameters: method as in library vendor description; conditions: ref library vendor description; cited from earlier work
# RGS4 = system: RGS4; parameters: method as in vendor brief description; conditions: ref vendor brief description; cited from earlier work
# mGlu5 receptor = molecular target: mGlu5 receptor; parameters: method as in vendor brief description; conditions: ref vendor brief description; cited from earlier work
# [2] = system: human neutrophil elastase; parameters: method as in vendor brief description; conditions: ref vendor brief description; cited from earlier work
# matriptase = molecular target: matriptase; parameters: method as in vendor brief description; conditions: ref vendor brief description; cited from earlier work
# proteasome = system: proteasome; parameters: method as in vendor brief description; conditions: ref vendor brief description; cited from earlier work
# Cathepsin L2 = system: Cathepsin L2; parameters: method as in vendor brief description; conditions: ref vendor brief description; cited from earlier work
# Cathepsin S = system: Cathepsin S; parameters: method as in vendor brief description; conditions: ref vendor brief description; cited from earlier work
# Cathepsin L = system: Cathepsin L; parameters: method as in vendor brief description; conditions: ref vendor brief description; cited from earlier work
# Cathepsin K = system: Cathepsin K; parameters: method as in vendor brief description; conditions: ref vendor brief description; cited from earlier work
# Cathepsin B = system: Cathepsin B; parameters: method as in vendor brief description; conditions: ref vendor brief description; cited from earlier work
# [3] = molecular target: HIV reverse transcriptase; parameters: method as in vendor brief description; conditions: ref vendor brief description; cited from earlier work
# PKCε = system: PKCε; parameters: method as in library vendor description; conditions: ref library vendor description; cited from earlier work
# PKCβ = system: PKCβ; parameters: method as in library vendor description; conditions: ref library vendor description; cited from earlier work
# PKCγ = system: PKCγ; parameters: method as in library vendor description; conditions: ref library vendor description; cited from earlier work
# PKCα = system: PKCα; parameters: method as in library vendor description; conditions: ref library vendor description; cited from earlier work
# Akt3 = system: Akt3; parameters: method as in vendor brief description; conditions: ref vendor brief description; cited from earlier work
# Akt1 = system: Akt1; parameters: method as in vendor brief description; conditions: ref vendor brief description; cited from earlier work
# GluR1 and GluR3 = system: GluR1 and GluR3; parameters: method as in vendor brief description; conditions: ref vendor brief description; cited from earlier work
# IKK-1 = system: IKK-1; parameters: method as in vendor brief description; conditions: ref vendor brief description; cited from earlier work
# in vitro = conditions: human, Host viability (%) mean
# IKK complex = system: IKK complex; parameters: method as in vendor brief description; conditions: ref vendor brief description; cited from earlier work
# IKK-2 = system: IKK-2; parameters: method as in vendor brief description; conditions: ref vendor brief description; cited from earlier work
# [4] = molecular target: HIF-1α prolyl hydroxylase-2 (PHD2); parameters: method as in vendor brief description; conditions: ref vendor brief description; cited from earlier work
# FAAH [5] = system: FAAH; parameters: method as in vendor brief description; conditions: rat; ref vendor brief description; cited from earlier work
# FAAH [6] = system: FAAH; parameters: method as in vendor brief description; conditions: human; ref vendor brief description; cited from earlier work
# LPA1 [7] = molecular target: LPA1; parameters: method as in library vendor description; conditions: ref library vendor description; cited from earlier work
# LPA3 [8] = molecular target: LPA3; parameters: method as in library vendor description; conditions: ref library vendor description; cited from earlier work
# LPA1 [9] = molecular target: LPA1; parameters: method as in vendor brief description; conditions: ref vendor brief description; read-out: Ki LPA1-induced inositol phosphate production; cited from earlier work
# LPA2 = molecular target: LPA2; parameters: method as in library vendor description; conditions: ref library vendor description; cited from earlier work
# LPA3 [10] = molecular target: LPA3; parameters: method as in vendor brief description; conditions: ref vendor brief description; read-out: Ki LPA3-induced inositol phosphate production; cited from earlier work
# NOD1 = system: NOD1; parameters: method as in vendor brief description; conditions: ref vendor brief description; cited from earlier work
# P2Y6 receptor = conditions: read-out: IC50 P2Y6 receptor; ref vendor brief description; cited from earlier work
# V2 receptor = molecular target: V2 receptor; parameters: method as in vendor brief description; conditions: ref vendor brief description; cited from earlier work
# V1 receptor = molecular target: V1 receptor; parameters: method as in vendor brief description; conditions: ref vendor brief description; cited from earlier work
# IGF-1R = system: IGF-1R; parameters: method as in vendor brief description; conditions: ref vendor brief description; cited from earlier work
# FAK = system: FAK; parameters: method as in vendor brief description; conditions: ref vendor brief description; cited from earlier work
# Mdm2 = system: Mdm2; parameters: method as in library vendor description; conditions: ref library vendor description; cited from earlier work
# PARP2 = system: PARP2; parameters: method as in library vendor description; conditions: ref library vendor description; cited from earlier work
# Yes = system: Yes; parameters: method as in vendor brief description; conditions: ref vendor brief description; cited from earlier work
# VEGFR-2 = system: VEGFR-2; parameters: method as in vendor brief description; conditions: ref vendor brief description; cited from earlier work
# ChK2 = system: ChK2; parameters: method as in vendor brief description; conditions: ref vendor brief description; cited from earlier work
# Fms = system: Fms; parameters: method as in vendor brief description; conditions: ref vendor brief description; cited from earlier work
# 5-HT4b = molecular target: 5-HT4b; parameters: method as in vendor brief description; conditions: ref vendor brief description; cited from earlier work
# 5-HT4a = molecular target: 5-HT4a; parameters: method as in vendor brief description; conditions: ref vendor brief description; cited from earlier work
# DNA methyltransferase = molecular target: DNA methyltransferase; parameters: method as in vendor brief description; conditions: ref vendor brief description; cited from earlier work
# AhR = conditions: cited from earlier work
# GSK3 = system: GSK3; parameters: method as in vendor brief description; conditions: ref vendor brief description; cited from earlier work
# CA IX = system: CA IX; parameters: method as in vendor brief description; conditions: ref vendor brief description; cited from earlier work
# CA XII = system: CA XII; parameters: method as in vendor brief description; conditions: ref vendor brief description; cited from earlier work
# mGlu4 = system: mGlu4; parameters: method as in vendor brief description; conditions: ref vendor brief description; cited from earlier work
# Abl = system: Abl; parameters: method as in vendor brief description; conditions: ref vendor brief description; read-out: IC50 Abl; cited from earlier work
# Src = system: Src; parameters: method as in vendor brief description; conditions: ref vendor brief description; cited from earlier work
# VEGFR1 = system: VEGFR1; parameters: method as in vendor brief description; conditions: ref vendor brief description; cited from earlier work
# [11] = read-out: Parasite inhibition (%) mean, preliminary screen, mean
# [12] = read-out: Parasite inhibition (%) mean, preliminary screen of compound library, mean
smiles,measurement,setting,value
Cc1c(NC(=O)OC[C@@H]2COCCN2)cn2ncnc(Nc3ccc4c(cnn4Cc4cccc(F)c4)c3)c12 [BMS-599626 (AC480)],IC50,HER1,20 nM
same,inhibition of growth at 5 µM,[1]; [11],39.6%
same,IC50,HER2,30 nM
Cc1ccc(-n2sc(=O)n(Cc3ccc(F)cc3)c2=O)cc1 [CCG 50014],IC50,RGS4,30 nM
same,inhibition of growth at 5 µM,[1]; [12],1.4%
Cc1nc(C#Cc2ccnc(Cl)c2)c(C)n1-c1ccc(OC(F)(F)F)cc1 [CTEP],inhibition of growth at 5 µM,[1]; [12],2.4%
same,IC50,mGlu5 receptor,2.2 nM
CN(C)C(=O)COC(=O)Cc1ccc(OC(=O)c2ccc(NC(=N)N)cc2)cc1 [Camostat Mesilate (FOY-305)],IC50,[2],200 nM
same,inhibition of growth at 5 µM,[1]; [12],2.5%
same,IC50,matriptase,500 nM
CC(C)C[C@H](NC(=O)[C@H](CCc1ccccc1)NC(=O)CN1CCOCC1)C(=O)N[C@@H](Cc1ccccc1)C(=O)N[C@@H](CC(C)C)C(=O)[C@@]1(C)CO1 [Carfilzomib (PR-171)],IC50,proteasome,< 5 nM
same,inhibition of growth at 5 µM,[1]; [12],-3.5%
Cn1nc(C(C)(C)C)cc1C(=O)N[C@@H](Cc1cccc(Cl)c1)C(=O)NCC#N [Cathepsin Inhibitor 1],pIC50 Cathepsin L2,Cathepsin L2,6.7
same,pIC50 Cathepsin S,Cathepsin S,6.0
same,inhibition of growth at 5 µM,[1]; [12],21.5%
same,pIC50 Cathepsin L,Cathepsin L,7.9
same,pIC50 Cathepsin K,Cathepsin K,5.5
same,pIC50 Cathepsin B,Cathepsin B,5.2
Cc1cc(C)c(Nc2ccnc(Nc3ccc(C#N)cc3)n2)c(C)c1 [Dapivirine],IC50,[3],24 nM
same,inhibition of growth at 5 µM,[1]; [12],0.8%
Cn1cc(C2=C(c3cn(C4CCN(Cc5ccccn5)CC4)c4ccccc34)C(=O)NC2=O)c2ccccc21 [Enzastaurin (LY317615)],IC50,PKCε,[…]
same,IC50,PKCβ,6 nM
same,inhibition of growth at 5 µM,[1]; [11],11.4%
CC(C)NC[C@@H](C(=O)N1CCN(c2ncnc3c2[C@H](C)C[C@H]3O)CC1)c1ccc(Cl)cc1 [GDC-0068],IC50,Akt3,[…]
same,inhibition of growth at 5 µM,[1]; [12],35.4%
NCCCCCNCC12CC3CC(CC(C3)C1)C2 [IEM 1754 dihydrobroMide],IC50,GluR1 and GluR3,6000 nM
same,inhibition of growth at 5 µM,[1]; [12],15.8%
O=C(c1ccc(Nc2nccc(-c3cc4ccccc4s3)n2)cc1)N1CCC(N2CCCC2)CC1 [IKK-16],IC50,IKK-1,200 nM
same,inhibition of growth at 5 µM,[1]; [12],99.8%
same,viability at 72 h,in vitro,10.7%
same,IC50,IKK complex,70 nM
same,IC50,IKK-2,40 nM
O=C(O)CNC(=O)c1c(O)c2ccccc2n(Cc2ccccc2)c1=O [IOX2],IC50,[4],21 nM
same,inhibition of growth at 5 µM,[1]; [12],32.8%
O=C(Nc1ccccc1)N1CCN(c2nc(-c3ccccc3)ns2)CC1 [JNJ 1661010],IC50,FAAH [5],10 nM
same,inhibition of growth at 5 µM,[1]; [12],10.5%
same,IC50,FAAH [6],12 nM
Cc1noc(-c2ccc(CSCCC(=O)O)cc2)c1NC(=O)OC(C)c1ccccc1Cl (stereo not drawn) [Ki16425],Ki,LPA1 [7],340 nM
same,Ki,LPA3 [8],930 nM
same,Ki,LPA1 [9],340 nM
same,Ki,LPA2,6500 nM
same,Ki,LPA3 [10],930 nM
same,inhibition of growth at 5 µM,[1]; [11],-25.5%
Cc1ccc(S(=O)(=O)n2c(N)nc3ccccc32)cc1 [ML130],inhibition of growth at 5 µM,[1]; [12],3.3%
same,IC50,NOD1,560 nM
S=C=Nc1cccc(NC(=S)NCCCCNC(=S)Nc2cccc(N=C=S)c2)c1 [MRS 2578],IC50,P2Y6 receptor,37 nM
same,inhibition of growth at 5 µM,[1]; [12],0.2%
Cc1ccccc1C(=O)Nc1ccc(C(=O)N2CCCC(N(C)C)c3ccccc32)cc1 (stereo not drawn) [Mozavaptan],IC50,V2 receptor,14 nM
same,inhibition of growth at 5 µM,[1]; [12],3.1%
same,IC50,V1 receptor,1200 nM
CNC(=O)c1ccccc1Nc1nc(Nc2ccc(N3CCOCC3)cc2OC)ncc1Cl [NVP-TAE226],IC50,IGF-1R,[…]
same,inhibition of growth at 5 µM,[1]; [12],66.8%
same,IC50,FAK,5.5 nM
COc1ccc(C2=N[C@@H](c3ccc(Cl)cc3)[C@@H](c3ccc(Cl)cc3)N2C(=O)N2CCNC(=O)C2)c(OC(C)C)c1 [Nutlin-3],IC50,Mdm2,[…]
same,inhibition of growth at 5 µM,[1]; [11],-1.5%
O=C(c1cc(Cc2n[nH]c(=O)c3ccccc23)ccc1F)N1CCN(C(=O)C2CC2)CC1 [Olaparib (AZD2281)],inhibition of growth at 5 µM,[1]; read-out: Parasite inhibition (%) mean,28.2%
same,IC50,PARP2,1 nM
Cn1cc(-c2[nH]c3cc(NC(=O)[C@H](N)C4CCCCC4)cc4c3c2C=NNC4=O)cn1 [PF 477736],IC50,Yes,14 nM
same,IC50,VEGFR-2,8 nM
same,inhibition of growth at 5 µM,[1]; [12],-0.5%
same,IC50,ChK2,47 nM
same,IC50,Fms,10 nM
COCCCN1CCC(NC(=O)c2cc(Cl)c(N)c3c2OCC3)CC1 [Prucalopride],Ki,5-HT4b,8 nM
same,Ki,5-HT4a,2.5 nM
same,inhibition of growth at 5 µM,[1]; [12],-7.6%
O=C(O)[C@H](Cc1c[nH]c2ccccc12)N1C(=O)c2ccccc2C1=O [RG108],inhibition of growth at 5 µM,[1]; [12],2.5%
same,IC50,DNA methyltransferase,115 nM
CC(C)n1cnc2c(NCCc3ccc(O)cc3)nc(-c3csc4ccccc34)nc21 [StemRegenin 1],IC50,AhR,127 nM
same,inhibition of growth at 5 µM,[1]; [12],0.2%
O=c1sn(-c2cccc3ccccc23)c(=O)n1Cc1ccccc1 [Tideglusib],IC50,GSK3,[…]
same,inhibition of growth at 5 µM,[1]; [12],52.8%
NS(=O)(=O)c1ccc(NC(=O)Nc2ccc(F)cc2)cc1 [U-104],IC50,CA IX,[…]
same,inhibition of growth at 5 µM,[1]; [12],5%
O=C(Nc1cccc(Cl)c1)c1ccccn1 [VU 0364770],inhibition of growth at 5 µM,[1]; [12],1.8%
same,EC50,mGlu4,1100 nM
COc1cc2ncnc(Nc3ccc(Cl)cc3F)c2cc1OC [ZM 306416],IC50,Abl,1300 nM
same,inhibition of growth at 5 µM,[1]; [12],70.2%
same,viability at 72 h,"in vitro; preliminary screen of compound library, mean",76.6%
